Measurements: patent publication US6825178B1, “Methods and products for treating pseudomonas infection” (The Brigham and Women's Hospital, Inc., priority 1996, dated 2004)
Marks after values point to notes of the source that are not given here.

Key:
WI-38 cells = experiment: Inhibition of internalization of P. aeruginosa strain PAO1 into WI-38 cells; type: cell-based, human; conditions: strain PAO1, WI 38 cells, 1 nM peptide
Experimental: WI-38 (human diploid lung cell line, ATCC. no. CCL-75) and A549 cells (human lung carcinoma cells, ATCC no. CCL-185) were obtained from the ATCC and grown according to their instructions.
Bacterial ingestion assay. Cells were released from monolayers in tissue culture flasks by 5 min. of incubation with trypsin-versene mixture (BioWhitaker, Walkersville, Md.), washed, counted and seeded into 96-well tissue culture plates at 10^5 cells/well in supplemented F-12 medium and incubated at 37° C. in 5% CO2. Fresh cultures of P. aeruginosa grown overnight at 37° C. on a tryptic soy agar plate were suspended in supplemented F-12 medium to prepare the bacterial inoculum. Then 10^6 colony forming units (cfu) of the bacterial inoculum were added per well of 10^5 epithelial cells. […] Three to 9 replicates were obtained per point, and analyzed using analysis of variance (ANOVA) and the Fisher PLSD statistic to determine pairwise differences.
Inhibition of ingestion in the presence of membranes isolated from C127 cells, monoclonal antibodies to extracellular domains of CFTR, or synthetic peptides corresponding to the first or fourth extracellular domains of CFTR was evaluated by adding these materials to the bacteria prior to adding them directly into wells for evaluation of bacterial uptake. […]

[1] = tested on: P. aeruginosa strain PAO1; experiment: Neonatal mouse model of infection, CFTR peptide added to bacterial inoculum; type: in vivo; conditions: 7-day old mice, 10 nM peptide added to PAO1 inoculum, intranasal, 24 hours after infection; for Median cfu (10th-90th percentile cfu) P. aeruginosa internalized per mg. lung tissue: gentamicin-exclusion
Experimental: Neonatal mouse model of infection. Seven-day old neonatal Balb/c mice were infected with ˜10^8 cfu of stain PAO1 delivered intranasally as described, with the addition of 10 nM of a synthetic peptide corresponding to either the first or fourth extracellular domains of CFTR to the bacterial inoculum. Twenty-four hours later 7 animals were killed, right and left lungs removed, weighed and dispersed into single cell suspensions by grinding through a fine-mesh wire screen. An aliquot was removed, Triton X-100 added to a final concentration of 0.5% to release intracellular bacteria and the total cfu of bacteria present in each lung determined. The remaining portion of the lung cell suspension was treated with 300 μg gentamicin/ml for 60 minutes to kill extracellular P. aeruginosa. The cells were then pelleted in a centrifuge (400×g, 10 minutes), washed twice in RPMI medium, and resuspended in 200 μl of 0.5% Triton X-100 to release intracellular bacteria that survived the gentamicin treatment. These suspensions were diluted and plated for bacterial enumeration. The cfu per milligram lung weight was calculated and differences among groups analyzed by nonparametric statistics (Mann-Whitney U test) due to outliers in some groups.
To confirm that binding and internalization of P. aeruginosa by the first predicted extracellular domain of CFTR is important in resistance to lung infection, 7-day old Balb/c mice were nasally inoculated with 10^8 cfu of P. aeruginosa stain PAO1 mixed with either 10 nM of the peptide corresponding to the first or fourth predicted extracellular domains of CFTR and the course of bacterial infection was followed for over 24 hours. […] Thus, inhibiting P. aeruginosa internalization by blocking the bacterial interaction with CFTR in the lung leads to increased bacterial counts in this tissue, indicating an important mechanism for clearance of P. aeruginosa from the lung following inhalation of these organisms.

[2] = listed as First extracellular domain
[3] = listed as first extracellular domain peptide
[4] = listed as Fourth extracellular domain

Row | Sequence | Mean cfu (standard deviation) of P. aeruginosa internalized (WI-38 cells) | Median cfu (10th-90th percentile cfu) P. aeruginosa internalized per mg. lung tissue [1, 2] | Median cfu (10th-90th percentile cfu) P. aeruginosa internalized per mg. lung tissue [1, 3] | Median cfu (10th-90th percentile cfu) P. aeruginosa total per mg. lung tissue [1, 2] | Median cfu (10th-90th percentile cfu) P. aeruginosa total per mg. lung tissue [1, 3] | Median cfu (10th-90th percentile cfu) P. aeruginosa internalized per mg. lung tissue [1, 4] | Median cfu (10th-90th percentile cfu) P. aeruginosa internalized per mg. lung tissue ([1]; listed as fourth extracellular domain peptide) | Median cfu (10th-90th percentile cfu) P. aeruginosa total per mg. lung tissue [1, 4] | Median cfu (10th-90th percentile cfu) P. aeruginosa total per mg. lung tissue ([1]; listed as fourth predicted extracellular domain)
1 | GRIIASYDPDNKEER (listed as Homo Sapiens) [First domain] | 3.497 × 10^4 (3.751 × 10^3)^a cfu | 0 (0-278) cfu per mg lung tissue | virtually no internalized P. aeruginosa | 152,419 (37,860-519,612) cfu per mg lung tissue | ~1.5×10^5 cfu per mg lung tissue | – | – | – | –
2 | LWLLGNTPLQDKGNSTHSRNNSYAVIITSTS (listed as Homo Sapiens) [Fourth domain, reference compound] | 7.3433 × 10^4 (9.124 × 10^3) cfu | – | – | – | – | 13,246 (3,578-49,558) cfu per mg lung tissue | > 10^4 cfu per mg lung tissue | 20,450 (4,000-61,008) cfu per mg lung tissue | ~2×10^4 cfu per mg lung tissue
